US8455688B2, “HDAC inhibitors” (Lixte Biotechnology, Inc., priority 2007, dated 2013)
Read-outs that look alike come from different tables or passages of the source.

How the values were obtained:
[1] = tested on: CP Control; test: Broth dilution antifungal susceptibility testing, CP Control; type: cell-based; conditions: read-out: minimum inhibitory concentration (MIC)
Procedure: (§1) A total of 23 isolates were tested to include 3 Candida albicans, 3 Candida glabrata, 3 Cryptococcus neoformans, 3 Aspergillus fumigatus, 3 Rhizopus oryzae, 3, Fusarium solani, 3 Pseudallescheria boydii, and 2 […]. All isolates were clinical isolates submitted to the Fungus Testing Laboratory for evaluation. Antifungal susceptibility testing was accomplished according to the methods outlined in the National Committee for Clinical Laboratory Standards, M-27A2, Reference Method for Broth Dilution Antifungal Susceptibility Testing of Yeasts; Approved Standard, and M38-A “Reference Method for Broth Dilution Antifungal Susceptibility Testing of Conidium-Forming Filamentous Fungi; Approved Standard”. This includes testing in RPMI-1640 with glutamine and without bicarbonate, an inoculum size of 0.5-2.5×10^3 for yeasts or […] for moulds, and incubation at 35° C. for 24 and 48 hours. […] Drug concentrations were 0.125-64 μg/ml. A 10 mg portion of each powder was weighed out and added to 1 ml of 100% DMSO for compound 205. The resulting concentration of […] was diluted to a working concentration of 6400 μg/ml for compound 205 in 100% DMSO. All subsequent dilutions were also made using the respective diluents. Final testing concentrations ranged from 0.125-64 μg/ml. The NCCLS recommended medium RPMI-1640 (Hardy Diagnostics, Santa Monica, Calif.) was utilized as the test medium. All isolates in this study were clinical isolates received in the Fungus Testing Laboratory for standard antifungal susceptibility testing and/or identification. Isolates, which were not sent for identification, were confirmed to assure testing integrity. A total of 23 were tested to include 3 Candida albicans, 3 Candida glabrata, 3 Cryptococcus neoformans, 3 Aspergillus fumigatus, 3 Rhizopus oryzae, 3, Fusarium solani, 3 Pseudallescheria boydii, and 2 […]. Minimum inhibitory concentrations (MIC) were determined at the first 24-hour interval where growth could be determined in the drug-free control tube.

[2] = tested on: A. fumigatus; test: Broth dilution antifungal susceptibility testing, A. fumigatus; type: cell-based, Aspergillus fumigatus; conditions: 80% inhibition; for MIC: Aspergillus fumigatus, read-out: minimum inhibitory concentration (MIC)
Procedure: as §1

[3] = tested on: T. rubrum; test: Broth dilution antifungal susceptibility testing, T. rubrum; type: cell-based, Trichophyton rubrum; conditions: 80% inhibition; for MIC: Trichophyton rubrum, read-out: minimum inhibitory concentration (MIC)
Procedure: as §1

[4] = tested on: C. neoformans; test: Broth dilution antifungal susceptibility testing, C. neoformans; type: cell-based; conditions: Cryptococcus neoformans, 50% reduction in turbidity, read-out: minimum inhibitory concentration (MIC)
Procedure: as §1

[5] = tested on: S. apiospermum; test: Broth dilution antifungal susceptibility testing, S. apiospermum; type: cell-based, Pseudallescheria boydii; conditions: 80% inhibition; for MIC: Scedosporium apiospermum, read-out: minimum inhibitory concentration (MIC)
Procedure: as §1

[6] = tested on: cell line U-87; test: Activity against the cell line U-87; type: cell-based, human; conditions: potency on an equimolar basis
[7] = tested on: F. solani; test: Broth dilution antifungal susceptibility testing, F. solani; type: cell-based; conditions: Fusarium solani, 80% inhibition, read-out: minimum inhibitory concentration (MIC)
Procedure: as §1

[8] = tested on: C. glabrata; test: Broth dilution antifungal susceptibility testing, C. glabrata; type: cell-based, Candida glabrata; conditions: 50% reduction in turbidity; for MIC: Nakaseomyces glabratus, read-out: minimum inhibitory concentration (MIC)
Procedure: as §1

[9] = tested on: R. arrhizus; test: Broth dilution antifungal susceptibility testing, R. arrhizus; type: cell-based, Rhizopus oryzae; conditions: 80% inhibition; for MIC: Rhizopus arrhizus, read-out: minimum inhibitory concentration (MIC)
Procedure: as §1

[10] = tested on: C. albicans; test: Broth dilution antifungal susceptibility testing, C. albicans; type: cell-based, Candida albicans; conditions: 50% reduction in turbidity; for MIC: Candida albicans, read-out: minimum inhibitory concentration (MIC)
Procedure: as §1

[11] = 24 h, isolate 06-4126, 24 hours
[12] = 24 h, isolate 07-2039, 24 hours
[13] = 48 h, isolate 07-2039, 48 hours
[14] = 24 h, isolate 07-1743, 24 hours
[15] = 24 h, isolate 07-2055, 24 hours
[16] = 48 h, isolate 07-1743, 48 hours
[17] = 48 h, isolate 07-2055, 48 hours
[18] = 24 h, isolate 07-2665, 24 hours
[19] = 24 h, isolate 07-2737, 24 hours
[20] = 24 h, isolate 07-2829, 24 hours
[21] = 48 h, isolate 07-2737, 48 hours
[22] = 48 h, isolate 07-2829, 48 hours
[23] = 24 h, isolate 07-1333, 24 hours
[24] = 24 h, isolate 07-1502, 24 hours
[25] = 48 h, isolate 07-1333, 48 hours
[26] = 48 h, isolate 07-1502, 48 hours
[27] = 48 h, isolate 07-1755, 48 hours
[28] = 48 h, isolate 07-1867, 48 hours
[29] = 24 h, isolate 07-2964, 24 hours
[30] = 24 h, isolate 07-2965, 24 hours
[31] = 24 h, isolate 07-3013, 24 hours
[32] = 48 h, isolate 07-2964, 48 hours
[33] = 48 h, isolate 07-2965, 48 hours
[34] = 48 h, isolate 07-3013, 48 hours
[35] = 24 h, isolate 07-2044, 24 hours
[36] = 24 h, isolate 07-2078, 24 hours
[37] = 48 h, isolate 07-2044, 48 hours
[38] = 48 h, isolate 07-2078, 48 hours
[39] = 24 h, isolate 07-3006, 24 hours
[40] = 24 h, isolate 07-3011, 24 hours
[41] = 24 h, isolate 07-3012, 24 hours
[42] = 48 h, isolate 07-3006, 48 hours
[43] = 48 h, isolate 07-3011, 48 hours
[44] = 48 h, isolate 07-3012, 48 hours

O=C(CCCCCNC(=O)c1ccccc1S)Nc1ccccc1 [Compound 201, 2-mercapto-N-[5-(phenylcarbamoyl)pentyl]benzamide]
1 µg/mL: MIC ([2]; 24 h, isolate 05-388, 24 hours) | MIC [2, 12] | minimum inhibitory concentration (MIC) ([2]; isolate 06-4126, 24 hours) | minimum inhibitory concentration (MIC) ([3]; isolate 07-1743, 24 hours) | minimum inhibitory concentration (MIC) ([3]; isolate 07-1743, 48 hours) | minimum inhibitory concentration (MIC) ([3]; isolate 07-2055, 24 hours) | minimum inhibitory concentration (MIC) ([3]; isolate 07-2055, 48 hours) | MIC [5, 23] | MIC [5, 25] | MIC [8, 30]
0.5 µg/mL: MIC [2, 11]
most potent on an equimolar basis: activity against the cell line U-87 [6]
8 µg/mL: MIC ([1]; 24 hours) | MIC [9, 35] | MIC [10, 39] | minimum inhibitory concentration (MIC) ([10]; isolate 07-3011, 24 hours) | minimum inhibitory concentration (MIC) ([10]; isolate 07-3012, 24 hours)
2 µg/mL: MIC [3, 14] | MIC [3, 15] | MIC [3, 16] | MIC [3, 17] | MIC [4, 18] | MIC [4, 19] | MIC [4, 20] | MIC [4, 22] | MIC [5, 24] | minimum inhibitory concentration (MIC) ([5]; isolate 07-1333, 24 hours) | minimum inhibitory concentration (MIC) ([5]; isolate 07-1333, 48 hours) | minimum inhibitory concentration (MIC) ([5]; isolate 07-1502, 48 hours) | MIC [8, 29] | MIC [8, 31] | minimum inhibitory concentration (MIC) ([8]; isolate 07-2965, 24 hours)
4 µg/mL: MIC [4, 21] | MIC [5, 26] | minimum inhibitory concentration (MIC) ([8]; isolate 07-2964, 24 hours) | minimum inhibitory concentration (MIC) ([9]; isolate 07-2044, 24 hours) | MIC [10, 40] | MIC [10, 41] | minimum inhibitory concentration (MIC) ([10]; isolate 07-3006, 24 hours)
> 64 µg/mL: MIC ([1]; 48 hours) | MIC ([2]; 48 h, isolate 05-388, 48 hours) | MIC [2, 13] | MIC [7, 27] | MIC [7, 28] | MIC [8, 32] | MIC [8, 33] | MIC [8, 34] | MIC [9, 36] | MIC [9, 37] | MIC [9, 38] | MIC [10, 42] | MIC [10, 43] | MIC [10, 44]

O=C(NCCCCCCNC(=O)c1ccccc1S)c1ccccc1S [Compound 204, Bis-1,6-(2-mercaptobenzoylamino)hexane]
< 0.125 µg/mL: MIC ([5]; 24 h, isolate 07-1601, 24 hours)
4 µg/mL: MIC [4, 18] | MIC ([4]; 48 h, isolate 07-2665, 48 hours)
> 64 µg/mL: MIC ([1]; 48 hours) | MIC ([2]; 48 h, isolate 05-388, 48 hours) | MIC ([2]; 48 h, isolate 06-4126, 48 hours) | MIC [2, 13] | MIC [4, 19] | MIC [4, 20] | MIC [4, 21] | MIC [4, 22] | MIC ([7]; 24 h, isolate 07-1399, 24 hours) | MIC ([7]; 24 h, isolate 07-1755, 24 hours) | MIC ([7]; 24 h, isolate 07-1867, 24 hours) | MIC ([7]; 48 h, isolate 07-1399, 48 hours) | MIC [7, 27] | MIC [7, 28] | MIC [8, 29] | MIC [8, 30] | MIC [8, 31] | MIC [8, 32] | MIC [8, 33] | MIC [8, 34] | MIC ([9]; 24 h, isolate 07-1870, 24 hours) | MIC [9, 35] | MIC [9, 36] | MIC ([9]; 48 h, isolate 07-1870, 48 hours) | MIC [9, 37] | MIC [9, 38] | MIC [10, 39] | MIC [10, 40] | MIC [10, 41] | MIC [10, 42] | MIC [10, 43] | MIC [10, 44]
0.5 µg/mL: MIC [5, 23] | MIC ([5]; 48 h, isolate 07-1601, 48 hours)
8 µg/mL: MIC ([1]; 24 hours)
1 µg/mL: MIC [2, 11] | MIC [2, 12] | MIC [3, 14] | MIC [3, 15] | MIC [3, 16] | MIC [3, 17] | MIC [5, 25]
2 µg/mL: MIC ([2]; 24 h, isolate 05-388, 24 hours) | MIC [5, 24] | MIC [5, 26]
